# Starred links: 1 amine or outer side, 2 acyl side, 3 side chain; linkers in the order of their positions; H or OH if unused. Positions of bridges follow the written chain, without caps; N, C: chain ends. Non-standard residues stand in square brackets, D forms with d. Residues, ends and D or L forms follow the SMILES beside them. *: point of attachment. hPhe(3-Cl-4-CF3) = N[C@@H](CCc1ccc(C(F)(F)F)c(Cl)c1)C(=O)O; hPhe(3-OMe-4-CF3) = COc1cc(CC[C@H](N)C(=O)O)ccc1C(F)(F)F; NMePhe(3,4-F2) = CN[C@@H](Cc1ccc(F)c(F)c1)C(=O)O; NMePhe(3-OMe) = CN[C@@H](Cc1cccc(OC)c1)C(=O)O; NMePhe(4-Me) = CN[C@@H](Cc1ccc(C)cc1)C(=O)O; NMePhe(4-F) = CN[C@@H](Cc1ccc(F)cc1)C(=O)O; NMedβ3hAla = C[C@H](CC(=O)[*:2])N(C)[*:1]; NMeGly(cPent) = CN[C@H](C(=O)O)C1CCCC1; Phe(3-I) = N[C@@H](Cc1cccc(I)c1)C(=O)O; NMeCha = CN[C@@H](CC1CCCCC1)C(=O)O; NMeI = CC[C@H](C)[C@H](NC)C(=O)O; NMeD = CN[C@@H](CC(=O)O)C(=O)O; NMeL = CN[C@@H](CC(C)C)C(=O)O; NMeV = CN[C@H](C(=O)O)C(C)C; d(β3hA) = C[C@@H](N)CC(=O)O; NMeS = CN[C@@H](CO)C(=O)O; NMeA = CN[C@@H](C)C(=O)O; NMeAib = CNC(C)(C)C(=O)O; Nle = CCCC[C@H](N)C(=O)O; Piperidide = C1CCN(*)CC1; dNMeA = CN[C@H](C)C(=O)O; Ac5c = NC1(C(=O)O)CCCC1; Aze = O=C(O)[C@@H]1CCN1; Sar = CNCC(=O)O; Propyl = CCC*
# Biological target: T1, Kras and SOS1 (biotin-tagged human Kras loaded with GDP, His-tagged human SOS1) (Homo sapiens, UniProt P01116, G12D)
# T1 construct: made in house; host or cells: E. coli (stated for Kras only)
# Assay: Protein-protein interaction inhibition between Kras and SOS1 (KrasGl2D-SOS PPI) using AlphaScreen
# Format: binding
# Details: AlphaScreen; biotin-tagged human Kras loaded with GDP, His-tagged human SOS1; read-out: KRAS G12D-SOS PPI IC50
# How it was run: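 Read-out is acceptor-bead light at 520-620 nm, arising when 680 nm-irradiated nickel donor beads pass singlet oxygen to streptavidin acceptors. The bead pair links His-tagged SOS1 with biotin-tagged, GDP-bound Kras from E. coli.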
# T1 sequence (P01116 1-188 isoform P01116-2 G12D): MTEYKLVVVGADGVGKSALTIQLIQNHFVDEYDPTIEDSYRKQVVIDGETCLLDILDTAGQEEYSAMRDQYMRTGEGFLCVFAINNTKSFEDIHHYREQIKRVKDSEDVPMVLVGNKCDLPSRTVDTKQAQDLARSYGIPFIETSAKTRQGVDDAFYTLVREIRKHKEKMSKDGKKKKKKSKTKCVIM
row,SMILES,IC50 [nM]
1,CC[C@H](C)[C@@H]1NC(=O)[C@H](CC(C)C)N(C)C(=O)C[C@@H](C(=O)N2CCCCC2)N(C)C(=O)[C@H]([C@@H](C)CC)N(C)C(=O)C2(CCCC2)NC(=O)[C@H](Cc2ccc(F)cc2)N(C)C(=O)[C@H](CCc2ccc(C(F)(F)F)c(Cl)c2)NC(=O)CN(C)C(=O)[C@H](Cc2ccc(C)cc2)N(C)C(=O)[C@@H]2CCN2C(=O)[C@H](C)N(C)C1=O [Compound 1876] ([NMeL]I[NMeA][Aze][NMePhe(4-Me)][Sar][hPhe(3-Cl-4-CF3)][NMePhe(4-F)][Ac5c][NMeI][NMeD]-Piperidide; lactam N-11),98
2,CCCC[C@@H]1NC(=O)[C@H](Cc2cccc(I)c2)NC(=O)CN(C)C(=O)[C@H](CC2CCCCC2)N(C)C(=O)CN(C)C(=O)CN(C)C(=O)[C@H]([C@@H](C)CC)NC(=O)[C@H](CC(C)C)N(C)C(=O)C[C@@H](C(=O)N2CCCCC2)N(C)C(=O)[C@H](CC(C)C)NC(=O)C(C)(C)N(C)C1=O [Compound 1416] ([NMeL]I[Sar][Sar][NMeCha][Sar][Phe(3-I)][Nle][NMeAib]L[NMeD]-Piperidide; lactam N-11),97
3,"CC[C@H](C)[C@@H]1NC(=O)[C@H](C)N(C)C(=O)C[C@@H](C)NC(=O)[C@H](C2CCCC2)N(C)C(=O)C2(CCCC2)NC(=O)[C@@H]2CCCN2C(=O)[C@H](CCc2ccc(C(F)(F)F)c(Cl)c2)NC(=O)[C@@H](C)N(C)C(=O)[C@H](Cc2ccc(F)c(F)c2)N(C)C(=O)CN(C)C(=O)CN(C)C1=O [Compound 1075] (cyclo([Ac5c][NMeGly(cPent)][d(β3hA)][NMeA]I[Sar][Sar][NMePhe(3,4-F2)][dNMeA][hPhe(3-Cl-4-CF3)]P))",140
4,CC[C@H](C)[C@@H]1NC(=O)[C@H](CC(C)C)N(C)C(=O)C[C@@H](C(=O)N(C)C)N(C)C(=O)[C@H](C2CCCC2)N(C)C(=O)C2(CCCC2)NC(=O)[C@@H]2CCCN2C(=O)[C@H](CCc2ccc(C(F)(F)F)c(Cl)c2)NC(=O)CN(C)C(=O)[C@H](Cc2ccc(C)cc2)N(C)C(=O)[C@@H]2CCN2C(=O)[C@H](C)N(C)C1=O [Compound 1756] ([NMeL]I[NMeA][Aze][NMePhe(4-Me)][Sar][hPhe(3-Cl-4-CF3)]P[Ac5c][NMeGly(cPent)][NMeD]-NMe2; lactam N-11),0.54
5,CCCOC[C@H]1C(=O)N(C)[C@H](C(=O)N2CCCCC2)CC(=O)N(C)[C@@H](CC(C)C)C(=O)N[C@@H]([C@@H](C)CC)C(=O)N(C)[C@@H](C)C(=O)N2CC[C@H]2C(=O)N(C)[C@@H](CC2CCCCC2)C(=O)N(C)CC(=O)N[C@@H](CCc2ccc(C(F)(F)F)c(Cl)c2)C(=O)N2CCC[C@H]2C(=O)NC2(CCCC2)C(=O)N1C [Compound 1855] ([NMeL]I[NMeA][Aze][NMeCha][Sar][hPhe(3-Cl-4-CF3)]P[Ac5c][NMeS](Propyl)[NMeD]-Piperidide; lactam N-11),340
6,CC[C@H](C)[C@@H]1NC(=O)[C@H](C)N(C)C(=O)C[C@@H](C(=O)N(C)C)N(C)C(=O)[C@H]([C@@H](C)CC)N(C)C(=O)C2(CCCC2)NC(=O)[C@H](Cc2cccc(OC)c2)N(C)C(=O)[C@H](CCc2ccc(C(F)(F)F)c(Cl)c2)NC(=O)CN(C)C(=O)[C@H](Cc2ccc(C)cc2)N(C)C(=O)[C@@H]2CCN2C(=O)[C@H](C)N(C)C1=O [Compound 1922] ([NMeA]I[NMeA][Aze][NMePhe(4-Me)][Sar][hPhe(3-Cl-4-CF3)][NMePhe(3-OMe)][Ac5c][NMeI][NMeD]-NMe2; lactam N-11),3.1
7,CC[C@H](C)[C@@H]1NC(=O)[C@H](CC(C)C)N(C)C(=O)C[C@@H](C(=O)N2CCCCC2)N(C)C(=O)[C@H](C2CCCC2)N(C)C(=O)C2(CCCC2)NC(=O)[C@@H]2CCCN2C(=O)[C@H](CCc2ccc(C(F)(F)F)c(OC)c2)NC(=O)CN(C)C(=O)[C@H](CC2CCCCC2)N(C)C(=O)[C@@H]2CCN2C(=O)[C@H](C)N(C)C1=O [Compound 2080] ([NMeL]I[NMeA][Aze][NMeCha][Sar][hPhe(3-OMe-4-CF3)]P[Ac5c][NMeGly(cPent)][NMeD]-Piperidide; lactam N-11),0.33
8,CC[C@H](C)[C@@H]1NC(=O)[C@H](CC(C)C)N(C)C(=O)C[C@@H](C)N(C)C(=O)[C@H](CC(C)C)NC(=O)C(C)(C)N(C)C(=O)[C@H](CC(C)C)NC(=O)[C@H](CCc2ccc(C(F)(F)F)c(Cl)c2)NC(=O)CN(C)C(=O)[C@H](CC2CCCCC2)N(C)C(=O)[C@@H]2CCN2C(=O)CN(C)C1=O [Compound 57] (cyclo([Aze][NMeCha][Sar][hPhe(3-Cl-4-CF3)]L[NMeAib]L[NMedβ3hAla][NMeL]I[Sar])),16
9,CC[C@H](C)[C@@H]1NC(=O)[C@H](CC(C)C)N(C)C(=O)C[C@@H](C)NC(=O)[C@H](C(C)C)N(C)C(=O)C2(CCCC2)NC(=O)[C@@H]2CCCN2C(=O)[C@H](CCc2ccc(C(F)(F)F)c(Cl)c2)NC(=O)CN(C)C(=O)[C@H](CC2CCCCC2)N(C)C(=O)[C@@H]2CCCN2C(=O)CN(C)C1=O [Compound 1050] (cyclo([Ac5c][NMeV][d(β3hA)][NMeL]I[Sar]P[NMeCha][Sar][hPhe(3-Cl-4-CF3)]P)),49

# Reference: patent publication US12371454B2, “Cyclic peptide compound having Kras inhibitory action” (priority 2019, dated 2025)
